Molecules are shown by their SMILES.

The text below walks through data of patent US20240025906A1 (NEURON23, INC., priority 2022, published 2024).

For test [1], the system named is JAK1/TYK2 pSTAT5 (Tyr694/699) in THP-1 cell line. The test can be described thus: IFNa-stimulated JAK1/TYK2 pSTAT5 (Tyr694/699) inhibition cellular assay, AlphaLISA. The format is cell-based. To be noted: Homo sapiens; THP-1 cells, IFNa-stimulated, AlphaLISA (Assay B); read-out: Cellular THP1_IFNa-pSTATS_IC50. In outline: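 THP-1, 2e4 cells/well, HBSS; cpd 1 h 37 °C (10000–0.04 nM final, 6-fold, 8 pt); IFNa 100 ng/mL added, 30 min; lyse, freeze −80 °C; pSTAT5 AlphaLISA, 615 nm; 4PL IC50, bottom fixed 0, slope −1.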

The target of test [2] is T1, TYK2 JH2 (Homo sapiens, UniProt P29597).
T1 construct: purchased DiscoverX (KINOMEscan KdELECT service); host or cells: E. coli BL21-derived (T7 phage display) or HEK-293
The test can be described thus: TYK2 JH2 binding assay (KINOMEscan KdELECT competitive binding). As to conditions: TYK2 JH2 domain, KINOMEscan KdELECT (Assay A); read-out: Biochemical TYK2_JH2_Kd. The method in brief:
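Competition binding, KdELECT format. Kinase (phage-tagged, E. coli BL21-derived host; or HEK-293, DNA-tagged) + ligand-coated streptavidin beads + cpd, 1 h RT, final DMSO 0.9%. Wash, elute 30 min with 0.5 μM non-biotinylated ligand; qPCR readout. Kd: 11-pt, 3-fold series.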

T1 sequence (P29597 589-875 limits assumed): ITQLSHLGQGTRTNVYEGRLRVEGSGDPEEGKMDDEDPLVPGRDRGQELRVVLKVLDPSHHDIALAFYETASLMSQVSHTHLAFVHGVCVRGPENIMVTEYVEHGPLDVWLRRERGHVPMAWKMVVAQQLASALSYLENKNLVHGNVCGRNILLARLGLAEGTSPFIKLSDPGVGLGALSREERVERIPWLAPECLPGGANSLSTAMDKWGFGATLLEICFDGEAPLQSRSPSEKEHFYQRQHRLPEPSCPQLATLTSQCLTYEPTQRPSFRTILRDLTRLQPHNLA

`CNc1ncc(-c2ccnn2Cc2ccccc2)c2cc(NC(=O)C3CC3)ncc12` [Example 20, N-(5-(1-benzyl-1H-pyrazol-5-yl)-8-(methylamino)-2,7-naphthyridin-3-yl)cyclopropanecarboxamide]: in test [1], the IC50 was more than 500 nM. For the same compound, in test [2], the Kd was not above 100 nM.

Regarding `CNc1ncc(-c2ccc3c(c2)OCO3)c2cc(NC(=O)C3CC3)ncc12` [Example 21, N-(5-(benzo[d][1,3]dioxol-5-yl)-8-(methylamino)-2,7-naphthyridin-3-yl)cyclopropanecarboxamide], in test [1], the IC50 was more than 500 nM. The Kd in test [2] is not above 100 nM.

On to `CNc1ncc(-c2ccc(C)s2)c2cc(NC(=O)C3CC3)ncc12` [Example 22, N-(8-(methylamino)-5-(5-methylthiophen-2-yl)-2,7-naphthyridin-3-yl)cyclopropanecarboxamide], for which the IC50 in test [1] was more than 500 nM. The Kd in test [2] is not above 100 nM.

In the case of `CNc1ncc(-c2cc(C)n[nH]2)c2cc(NC(=O)C3CC3)ncc12` [Example 23, N-(5-(3-methyl-1H-pyrazol-5-yl)-8-(methylamino)-2,7-naphthyridin-3-yl)cyclopropanecarboxamide], the IC50 in test [1] is more than 500 nM. Also, the Kd in test [2] is not above 100 nM.

`CNc1ncc(-c2cn[nH]c2)c2cc(NC(=O)C3CC3)ncc12` [Example 24, N-(8-(methylamino)-5-(1H-pyrazol-4-yl)-2,7-naphthyridin-3-yl)cyclopropanecarboxamide]: in test [1], the IC50 was more than 500 nM. Also, the Kd in test [2] is not above 100 nM.

`CNc1ncc(-c2cnn(C)c2)c2cc(NC(=O)C3CC3)ncc12` [Example 25, N-(5-(1-methyl-1H-pyrazol-4-yl)-8-(methylamino)-2,7-naphthyridin-3-yl)cyclopropanecarboxamide]: in test [1], the IC50 was more than 500 nM. Besides, the Kd in test [2] was not above 100 nM.

For the compound `CNc1ncc(-c2ncsc2C)c2cc(NC(=O)C3CC3)ncc12` [Example 26, N-(8-(methylamino)-5-(5-methylthiazol-4-yl)-2,7-naphthyridin-3-yl)cyclopropanecarboxamide], the IC50 in test [1] is more than 500 nM. Moreover, the Kd in test [2] is not above 100 nM.

`CNc1ncc(C)c2cc(NC(=O)C3CC3)ncc12` [Example 27, N-(5-methyl-8-(methylamino)-2,7-naphthyridin-3-yl)cyclopropanecarboxamide]: the IC50 in test [1] was more than 500 nM. For the same compound, the Kd in test [2] was not above 100 nM.

As to `CNc1ncc(C2CC2)c2cc(NC(=O)C3CC3)ncc12` [Example 28, N-(5-cyclopropyl-8-(methylamino)-2,7-naphthyridin-3-yl)cyclopropanecarboxamide], the IC50 in test [1] was more than 500 nM. Moreover, in test [2], the Kd is not above 100 nM.

For `CNc1ncc(-c2cccc(S(C)(=O)=O)c2)c2cc(NC(=O)C3CC3)ncc12` [Example 29, N-(8-(methylamino)-5-(3-(methylsulfonyl)phenyl)-2,7-naphthyridin-3-yl)cyclopropanecarboxamide], the IC50 in test [1] was more than 500 nM. In test [2], the Kd is not above 100 nM.

With `CNc1ncc(-c2ocnc2C)c2cc(NC(=O)C3CC3)ncc12` [Example 30, N-(8-(methylamino)-5-(4-methyloxazol-5-yl)-2,7-naphthyridin-3-yl)cyclopropanecarboxamide], the IC50 in test [1] is more than 500 nM. In test [2], the Kd is not above 100 nM.

In the case of `CNc1ncc(CCc2ccccc2)c2cc(NC(=O)C3CC3)ncc12` [Example 31, N-(8-(methylamino)-5-phenethyl-2,7-naphthyridin-3-yl)cyclopropanecarboxamide], the IC50 in test [1] was more than 500 nM. In addition, the Kd in test [2] is not above 100 nM.

Take `CNc1ncc(-c2nc(C)co2)c2cc(NC(=O)C3CC3)ncc12` [Example 32, N-(8-(methylamino)-5-(4-methyloxazol-2-yl)-2,7-naphthyridin-3-yl)cyclopropanecarboxamide]: the IC50 in test [1] is not above 500 nM. For the same compound, the Kd in test [2] is not above 100 nM.

With `CNc1ncc(/C=C/c2ccccc2)c2cc(NC(=O)C3CC3)ncc12` [Example 33, (E)-N-(8-(methylamino)-5-styryl-2,7-naphthyridin-3-yl)cyclopropanecarboxamide], the IC50 in test [1] was not above 500 nM. For the same compound, the Kd in test [2] is not above 100 nM.

Regarding `CNc1ncc(Cc2ccc(OC)cc2)c2cc(NC(=O)C3CC3)ncc12` [Example 34, N-(5-(4-methoxybenzyl)-8-(methylamino)-2,7-naphthyridin-3-yl)cyclopropanecarboxamide], the IC50 in test [1] was more than 500 nM. Further, in test [2], the Kd was in the range of 100 to 1000 nM.

Take `CNc1ncc(-c2ccccc2C)c2cc(NC(=O)C3CC3)ncc12` [Example 35, N-(8-(methylamino)-5-(o-tolyl)-2,7-naphthyridin-3-yl)cyclopropanecarboxamide]: the IC50 in test [1] is more than 500 nM. Also, the Kd in test [2] is not above 100 nM.

Turning to `CNc1ncc(-c2conc2C)c2cc(NC(=O)C3CC3)ncc12` [Example 36, N-(8-(methylamino)-5-(3-methylisoxazol-4-yl)-2,7-naphthyridin-3-yl)cyclopropanecarboxamide], in test [1], the IC50 is more than 500 nM. Further, the Kd in test [2] was not above 100 nM.

With `CNc1ncc(-c2ccc(C#N)cc2)c2cc(NC(=O)C3CC3)ncc12` [Example 37, N-(5-(4-cyanophenyl)-8-(methylamino)-2,7-naphthyridin-3-yl)cyclopropanecarboxamide], in test [1], the IC50 is more than 500 nM. For the same compound, the Kd in test [2] was not above 100 nM.

With `CNc1ncc(-c2cnn(CC(F)(F)F)c2)c2cc(NC(=O)C3CC3)ncc12` [Example 38, N-(8-(methylamino)-5-(1-(2,2,2-trifluoroethyl)-1H-pyrazol-4-yl)-2,7-naphthyridin-3-yl)cyclopropanecarboxamide], the IC50 in test [1] is more than 500 nM. Moreover, in test [2], the Kd was not above 100 nM.

With `CNc1ncc(-c2c(C)cnn2C2CCCCO2)c2cc(NC(=O)C3CC3)ncc12` (centres unmarked) [Example 39, N-(5-(4-methyl-1-(tetrahydro-2H-pyran-2-yl)-1H-pyrazol-5-yl)-8-(methylamino)-2,7-naphthyridin-3-yl)cyclopropanecarboxamide], the IC50 in test [1] is more than 500 nM. Besides, in test [2], the Kd lay within 1000 to 10000 nM.

As for `CNc1ncc(-c2[nH]ncc2C)c2cc(NC(=O)C3CC3)ncc12` [Example 40, N-(5-(4-methyl-1H-pyrazol-5-yl)-8-(methylamino)-2,7-naphthyridin-3-yl)cyclopropanecarboxamide], the IC50 in test [1] was more than 500 nM. Also, the Kd in test [2] is not above 100 nM.

For the compound `CNc1ncc(-c2ccccc2C(N)=O)c2cc(NC(=O)C3CC3)ncc12` [Example 41, 2-(6-(cyclopropanecarboxamido)-1-(methylamino)-2,7-naphthyridin-4-yl)benzamide], the IC50 in test [1] is more than 500 nM. The Kd in test [2] lay in the range of 100 to 1000 nM.

Take `CNc1ncc(-c2ccccc2C#N)c2cc(NC(=O)C3CC3)ncc12` [Example 42, N-(5-(2-cyanophenyl)-8-(methylamino)-2,7-naphthyridin-3-yl)cyclopropanecarboxamide]: the IC50 in test [1] is more than 500 nM. Further, the Kd in test [2] lay in the range of 100 to 1000 nM.

`CNc1ncc(Cc2ccccc2)c2cc(NC(=O)C3CC3)ncc12` [Example 43, N-(5-benzyl-8-(methylamino)-2,7-naphthyridin-3-yl)cyclopropanecarboxamide]: in test [1], the IC50 was more than 500 nM. For the same compound, the Kd in test [2] was not above 100 nM.

Take `CNc1ncc(CO)c2cc(NC(=O)C3CC3)ncc12` [Example 44, N-(5-(hydroxymethyl)-8-(methylamino)-2,7-naphthyridin-3-yl)cyclopropanecarboxamide]: the IC50 in test [1] was more than 500 nM. In addition, the Kd in test [2] was not above 100 nM.

Turning to `CNc1ncc(COc2ccccc2)c2cc(NC(=O)C3CC3)ncc12` [Example 45, N-(8-(methylamino)-5-(phenoxymethyl)-2,7-naphthyridin-3-yl)cyclopropanecarboxamide], the IC50 in test [1] was more than 500 nM. Besides, in test [2], the Kd was not above 100 nM.

For the compound `CNc1ncc(-c2ccc(S(C)(=O)=O)cc2)c2cc(NC(=O)C3CC3)ncc12` [Example 46, N-(8-(methylamino)-5-(4-(methylsulfonyl)phenyl)-2,7-naphthyridin-3-yl)cyclopropanecarboxamide], the IC50 in test [1] is more than 500 nM. In addition, the Kd in test [2] is not above 100 nM.

Regarding `CNc1ncc(-c2ccccc2SC)c2cc(NC(=O)C3CC3)ncc12` [Example 47, N-(8-(methylamino)-5-(2-(methylthio)phenyl)-2,7-naphthyridin-3-yl)cyclopropanecarboxamide], the IC50 in test [1] is more than 500 nM. Besides, in test [2], the Kd was in the range of 100 to 1000 nM.

For the compound `CNc1ncc(-c2ccccc2S(C)(=O)=O)c2cc(NC(=O)C3CC3)ncc12` [Example 48, N-(8-(methylamino)-5-(2-(methylsulfonyl)phenyl)-2,7-naphthyridin-3-yl)cyclopropanecarboxamide], in test [1], the IC50 was more than 500 nM. Further, the Kd in test [2] lay in the range of 1000 to 10000 nM.

Consider `CNc1ncc(-c2cccc(-c3ncn(C)n3)c2OC)c2cc(NC(=O)C3CC3)ncc12` [Example 49, N-(5-(2-methoxy-3-(1-methyl-1H-1,2,4-triazol-3-yl)phenyl)-8-(methylamino)-2,7-naphthyridin-3-yl)cyclopropanecarboxamide], for which, in test [1], the IC50 is more than 500 nM. For the same compound, the Kd in test [2] was not above 100 nM.

As for `CNc1ncc(-c2ccncn2)c2cc(NC(=O)C3CC3)ncc12` [Example 50, N-(8-(methylamino)-5-(pyrimidin-4-yl)-2,7-naphthyridin-3-yl)cyclopropanecarboxamide], the IC50 in test [1] is more than 500 nM. Moreover, the Kd in test [2] was not above 100 nM.
